What was measured:
[1] = molecular target: GDP-bound NRAS wild-type protein (Homo sapiens, UniProt P01111); assay: Binding to NRAS by surface plasmon resonance (SPR), Single Cycle Kinetics; conditions: KD ratio, GDP-bound NRAS wild-type vs GDP-bound KRAS wild-type, SPR
[2] = molecular target: GDP-bound HRAS wild-type protein (Homo sapiens, UniProt P01112); assay: Binding to HRAS by surface plasmon resonance (SPR), Single Cycle Kinetics; conditions: KD ratio, GDP-bound HRAS wild-type vs GDP-bound KRAS wild-type, SPR
Sequence of GDP-bound HRAS wild-type protein (P01112 whole entry): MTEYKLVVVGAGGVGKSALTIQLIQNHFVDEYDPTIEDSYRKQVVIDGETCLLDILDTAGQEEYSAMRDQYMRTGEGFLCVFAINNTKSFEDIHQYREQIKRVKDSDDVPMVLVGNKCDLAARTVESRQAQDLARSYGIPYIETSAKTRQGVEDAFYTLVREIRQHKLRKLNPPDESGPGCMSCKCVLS

Sequence of GDP-bound NRAS wild-type protein (P01111 whole entry): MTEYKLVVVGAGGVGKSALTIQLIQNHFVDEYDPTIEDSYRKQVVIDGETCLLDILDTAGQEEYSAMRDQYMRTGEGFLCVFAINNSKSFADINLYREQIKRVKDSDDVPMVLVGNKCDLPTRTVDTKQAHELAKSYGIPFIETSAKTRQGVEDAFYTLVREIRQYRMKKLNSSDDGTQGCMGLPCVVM

| SMILES | NRAS/KRAS (ratio of KD value for NRAS to KD value for KRAS) [1] | HRAS/KRAS (ratio of KD value for HRAS to KD value for KRAS) [2] |
| --- | --- | --- |
| CCC[C@H]1C(=O)N[C@@H]([C@@H](C)CC)C(=O)N(C)CC(=O)N(C)[C@H]2C/C=C\CCN(C2=O)[C@@H](Cc2ccc(C)cc2)C(=O)N(C)CC(=O)N[C@@H](CCc2ccc(C(F)(F)F)c(OC)c2)C(=O)N2C[C@@H](C)C[C@H]2C(=O)NC2(CC(C)(C)C2)C(=O)N(C)[C@@H](C2CCCC2)C(=O)N(C)[C@H](C(=O)N(C)CC)CC(=O)N1C [PP1889] | A (a compound having 10 or more and less than 20 is denoted as A) | B (a compound having 3 or more and less than 10 is denoted as B) |
| CCC[C@H]1C(=O)N[C@@H]([C@@H](C)CC)C(=O)N(C)CC(=O)N(C)[C@H]2C/C=C\CCN(C2=O)[C@@H](Cc2ccc(C)cc2)C(=O)N(C)CC(=O)N[C@@H](CCc2ccc(C(F)(F)F)c(OC)c2)C(=O)N2C[C@H](C)C[C@H]2C(=O)NC2(CC(C)(C)C2)C(=O)N(C)[C@@H](C2CCCC2)C(=O)N(C)[C@H](C(=O)N(C)C)CC(=O)N1C [PP1890] | A (a compound having 10 or more and less than 20 is denoted as A) | B (a compound having 3 or more and less than 10 is denoted as B) |
| CCC[C@H]1C(=O)N[C@@H]([C@@H](C)CC)C(=O)N(C)CC(=O)N(C)[C@H]2C/C=C\CCN(C2=O)[C@@H](Cc2ccc(C)cc2)C(=O)N(C)CC(=O)N[C@@H](CCc2ccc(C(F)(F)F)c(OC)c2)C(=O)N2C[C@H](C)C[C@H]2C(=O)NC2(CC(C)(C)C2)C(=O)N(C)[C@@H](C2CCCC2)C(=O)N(C)[C@H](C(=O)N(C)CC)CC(=O)N1C [PP1891] | A (a compound having 10 or more and less than 20 is denoted as A) | A (a compound having 10 or more and less than 20 is denoted as A) |
| CCC[C@H]1C(=O)N[C@@H]([C@@H](C)CC)C(=O)N(C)CC(=O)N(C)[C@H]2C/C=C\CCN(C2=O)[C@@H](Cc2ccc(C)cc2)C(=O)N(C)CC(=O)N[C@@H](CCc2ccc(C(F)(F)F)c(OC)c2)C(=O)N2C[C@H](OCC)C[C@H]2C(=O)NC2(CC(C)(C)C2)C(=O)N(C)[C@@H](C2CCCC2)C(=O)N(C)[C@H](C(=O)N(C)C)CC(=O)N1C [PP1892] | A (a compound having 10 or more and less than 20 is denoted as A) | B (a compound having 3 or more and less than 10 is denoted as B) |
| CCC[C@H]1C(=O)N[C@@H]([C@@H](C)CC)C(=O)N(C)CC(=O)N(C)[C@H]2C/C=C\CCN(C2=O)[C@@H](Cc2ccc(C)cc2)C(=O)N(C)CC(=O)N[C@@H](CCc2ccc(C(F)(F)F)c(Cl)c2)C(=O)N2C[C@@H](C)C[C@H]2C(=O)NC2(CC(C)(C)C2)C(=O)N(C)[C@@H](C2CCCC2)C(=O)N(C)[C@H](C(=O)N(C)CC)CC(=O)N1C [PP1893] | A (a compound having 10 or more and less than 20 is denoted as A) | B (a compound having 3 or more and less than 10 is denoted as B) |
| CCC[C@H]1C(=O)N[C@@H]([C@@H](C)CC)C(=O)N(C)CC(=O)N(C)[C@H]2C/C=C\CCN(C2=O)[C@@H](Cc2ccc(C)cc2)C(=O)N(C)CC(=O)N[C@@H](CCc2ccc(C(F)(F)F)c(Cl)c2)C(=O)N2C[C@H](C)C[C@H]2C(=O)NC2(CC(C)(C)C2)C(=O)N(C)[C@@H](C2CCCC2)C(=O)N(C)[C@H](C(=O)N(C)CC)CC(=O)N1C [PP1894] | A (a compound having 10 or more and less than 20 is denoted as A) | A (a compound having 10 or more and less than 20 is denoted as A) |
| CCC[C@H]1C(=O)N[C@@H]([C@@H](C)CC)C(=O)N(C)CC(=O)N(C)[C@H]2C/C=C\CCN(C2=O)[C@@H](Cc2ccc(C)cc2)C(=O)N(C)CC(=O)N[C@@H](CCc2ccc(C(F)(F)F)c(Cl)c2)C(=O)N2C[C@H](OCC)C[C@H]2C(=O)NC2(CCC2)C(=O)N(C)[C@@H](C2CCCC2)C(=O)N(C)[C@H](C(=O)N(C)CC)CC(=O)N1C [PP1895] | A (a compound having 10 or more and less than 20 is denoted as A) | B (a compound having 3 or more and less than 10 is denoted as B) |
| CCC[C@H]1C(=O)N[C@@H]([C@@H](C)CC)C(=O)N(C)CC(=O)N(C)[C@H]2C/C=C\CCN(C2=O)[C@@H](Cc2ccc(C)cc2)C(=O)N(C)CC(=O)N[C@@H](CCc2ccc(C(F)(F)F)c(Cl)c2)C(=O)N2C[C@H](OCC)C[C@H]2C(=O)NC2(CC(C)(C)C2)C(=O)N(C)[C@@H](C2CCCC2)C(=O)N(C)[C@H](C(=O)N(C)C)CC(=O)N1C [PP1896] | A (a compound having 10 or more and less than 20 is denoted as A) | B (a compound having 3 or more and less than 10 is denoted as B) |
| CC[C@H](C)[C@@H]1NC(=O)[C@H](CC2CC2)N(C)C(=O)C[C@@H](C(=O)N(C)C)N(C)C(=O)[C@H](C2CCCC2)N(C)C(=O)C2(CC(C)(C)C2)NC(=O)[C@@H]2C[C@H](C)CN2C(=O)[C@H](CCc2ccc(C(F)(F)F)c(OC)c2)NC(=O)CN(C)C(=O)[C@H](Cc2ccc(C)cc2)N2CC/C=C\C[C@@H](C2=O)N(C)C(=O)CN(C)C1=O [PP1898] | B (a compound having 3 or more and less than 10 is denoted as B) | B (a compound having 3 or more and less than 10 is denoted as B) |
| CC[C@H](C)[C@@H]1NC(=O)[C@H](CC2CC2)N(C)C(=O)C[C@@H](C(=O)N(C)CC)N(C)C(=O)[C@H](C2CCCC2)N(C)C(=O)C2(CC(C)(C)C2)NC(=O)[C@@H]2C[C@H](C)CN2C(=O)[C@H](CCc2ccc(C(F)(F)F)c(OC)c2)NC(=O)CN(C)C(=O)[C@H](Cc2ccc(C)cc2)N2CC/C=C\C[C@@H](C2=O)N(C)C(=O)CN(C)C1=O [PP1899] | A (a compound having 10 or more and less than 20 is denoted as A) | B (a compound having 3 or more and less than 10 is denoted as B) |
| CC[C@H](C)[C@@H]1NC(=O)[C@H](CC2CC2)N(C)C(=O)C[C@@H](C(=O)N(C)C)N(C)C(=O)[C@H](C2CCCC2)N(C)C(=O)C2(CC(C)(C)C2)NC(=O)[C@@H]2C[C@@H](C)CN2C(=O)[C@H](CCc2ccc(C(F)(F)F)c(OC)c2)NC(=O)CN(C)C(=O)[C@H](Cc2ccc(C)cc2)N2CC/C=C\C[C@@H](C2=O)N(C)C(=O)CN(C)C1=O [PP1901] | A (a compound having 10 or more and less than 20 is denoted as A) | B (a compound having 3 or more and less than 10 is denoted as B) |
| CC[C@H](C)[C@@H]1NC(=O)[C@H](CC2CC2)N(C)C(=O)C[C@@H](C(=O)N(C)CC)N(C)C(=O)[C@H](C2CCCC2)N(C)C(=O)C2(CC(C)(C)C2)NC(=O)[C@@H]2C[C@@H](C)CN2C(=O)[C@H](CCc2ccc(C(F)(F)F)c(OC)c2)NC(=O)CN(C)C(=O)[C@H](Cc2ccc(C)cc2)N2CC/C=C\C[C@@H](C2=O)N(C)C(=O)CN(C)C1=O [PP1902] | A (a compound having 10 or more and less than 20 is denoted as A) | A (a compound having 10 or more and less than 20 is denoted as A) |
| CCO[C@@H]1C[C@H]2C(=O)NC3(CC(C)(C)C3)C(=O)N(C)[C@@H](C3CCCC3)C(=O)N(C)[C@H](C(=O)N(C)C)CC(=O)N(C)[C@@H](CC3CC3)C(=O)N[C@@H]([C@@H](C)CC)C(=O)N(C)CC(=O)N(C)[C@H]3C/C=C\CCN(C3=O)[C@@H](Cc3ccc(C)cc3)C(=O)N(C)CC(=O)N[C@@H](CCc3ccc(C(F)(F)F)c(OC)c3)C(=O)N2C1 [PP1903] | A (a compound having 10 or more and less than 20 is denoted as A) | B (a compound having 3 or more and less than 10 is denoted as B) |
| CC[C@H](C)[C@@H]1NC(=O)[C@H](CC(C)C)N(C)C(=O)C[C@@H](C(=O)N(C)CC)N(C)C(=O)[C@H](C2CCCC2)N(C)C(=O)C2(CCC2)NC(=O)[C@@H]2C[C@H](C)CN2C(=O)[C@H](CCc2ccc(C(F)(F)F)c(OC)c2)NC(=O)CN(C)C(=O)[C@H](Cc2ccc(C)cc2)N2CC/C=C\C[C@@H](C2=O)N(C)C(=O)CN(C)C1=O [PP1904] | A (a compound having 10 or more and less than 20 is denoted as A) | B (a compound having 3 or more and less than 10 is denoted as B) |
| CC[C@H](C)[C@@H]1NC(=O)[C@H](CC(C)C)N(C)C(=O)C[C@@H](C(=O)N(C)CC)N(C)C(=O)[C@H](C2CCCC2)N(C)C(=O)C2(CC(C)(C)C2)NC(=O)[C@@H]2C[C@H](C)CN2C(=O)[C@H](CCc2ccc(C(F)(F)F)c(OC)c2)NC(=O)CN(C)C(=O)[C@H](Cc2ccc(C)cc2)N2CC/C=C\C[C@@H](C2=O)N(C)C(=O)CN(C)C1=O [PP1906] | A (a compound having 10 or more and less than 20 is denoted as A) | A (a compound having 10 or more and less than 20 is denoted as A) |
| CC[C@H](C)[C@@H]1NC(=O)[C@H](CC(C)C)N(C)C(=O)C[C@@H](C(=O)N(C)CC)N(C)C(=O)[C@H](C2CCCC2)N(C)C(=O)C2(CCC2)NC(=O)[C@@H]2C[C@@H](C)CN2C(=O)[C@H](CCc2ccc(C(F)(F)F)c(OC)c2)NC(=O)CN(C)C(=O)[C@H](Cc2ccc(C)cc2)N2CC/C=C\C[C@@H](C2=O)N(C)C(=O)CN(C)C1=O [PP1907] | AA (a compound having 20 or more is denoted as AA) | A (a compound having 10 or more and less than 20 is denoted as A) |
